Reference: US8530650B2, “2, 5-diamino-substituted pyrido [4, 3-D] pyrimidines as autotaxin inhibitors against cancer” (MERCK PATENT GmbH, priority 2008, dated 2013)
pIC50: −log10 of the molar value.

Biological target: T1, recombinant autotaxin (Homo sapiens, UniProt Q13822)
T1 construct: made in house; host or cells: Hi5 insect cells (baculovirus)
Assay: Autotaxin assay (Amplex Red, LPC substrate)
Type: biochemical
Conditions: 75 μM LPC, Amplex Red fluorescence, ten 1:3 dilutions starting at 30 μM
Protocol: Autotaxin activity is measured indirectly by means of Amplex Red Reagent. In this course, Amplex Red is measured as fluorogenic indicator for generated H2O2. Autotaxin converts substrate lysophosphatidylcholine (LPC) to phosphocholine and lysophosphatidylic acid (LPA). After the conversion phosphocholine is reacted with alkaline phosphatase to obtain inorganic phosphate and choline. During the next step choline is oxidized with choline oxidase to yield betaine, whereby H2O2 is generated. H2O2 reacts with Amplex Red Reagent in the presence of peroxidase (Horseradish peroxidase) in an 1:1 stochiometry and yields highly fluorescent resorufin. The generated fluorescence is measured in a reaction-dependent kinetic mode in order to enable subtraction of fluorescence signals of possible other fluorescent compounds that are not part of the reaction from total measured fluorescence.
1.5 μl of a standard solution or of the compounds of the invention are dissolved in 20 mM Hepes pH 7.2 with maximally 7.7% DMSO in individual concentrations. The resulting solution is pre-incubated together with 10 μl (16 ng) of highly purified recombinant autotaxin in a black 384-hole microtiter plate for 30 min at 22° C. Thereafter, the reaction is started through the addition of 5 μL-a-lysophosphatidylcholine (LPC), whereby the final concentration of LPC is 75 μM. The mixture is incubated for 90 min. at 37° C. After the incubation Amplex Red Reagent, peroxidase (Horseradish peroxidase) and choline oxidase are added. The fluorescence is immediately measured at a wavelength of 612 nm with an excitation wavelength of 485 nm in a “Tecan Ultra multimode” fluorescence reader. The activity of autotaxin is indirectly calculated via the amount of detected generated H2O2.
For IC50 analysis, ten serial 1:3 dilutions starting at 30 μM for each compound were run in duplicates.
IC50 values were calculated on normalized data. For normalization, control wells were added to each assay plate and the signal of uninhibited control wells was set to 100%, whereas the signal inhibited by 500 μM C14 LPA, (Avanti Polar Lipids, Cat# 857120P) was set to 0%. Curves were fitted and IC50 values calculated by the following model using proprietary analysis software: Y=Bottom+(100−Bottom)/(1+10^((LogIC50−X)*HillSlope))
Where X is the logarithm of concentration. Y is the response; Y starts at Bottom and goes to Top with a sigmoid shape.
Protein: Recombinant autotaxin (baculoviral Hi5 expression)
Substrate: L-a-lysophosphatidyl choline (chicken egg); Avanti Polar Lipids #830071 P
Standard: C14 LPA, Avanti Polar Lipids, Cat# 857120P
Detection Reagent Amplex Red Reagent; Invitrogen #A12222; dissolved in 1.923 ml of DMSO peroxidase Type VI-A (horseradish), Sigma #P6782; dissolved in 7.45 ml of test buffer, Choline Oxidase; Sigma #C5896; dissolved in 2.47 ml test buffer
Detection Reagent Mix: 1:100 dilution of Amplex Red Regent in test buffer
Test buffer: 200 mM Tris-HCl, Merck, Cat # 1.08219, pH 7.9; 0.1% BSA, lipid free, Roche Cat#775835

Row | SMILES | pIC50
1 | COc1ccccc1CNc1ncc2c(Nc3ccc(C)cc3)nccc2n1 [Compound 36, N2-(2-Methoxy-benzyl)-N5-p-tolyl-pyrido[4,3-d]pyrimidine-2,5-diamine] | > 4.52
2 | COC(=O)c1ccc(Nc2nccc3nc(NCc4ccc(Cl)cc4)ncc23)cc1 [Compound 50, 4-[2-(4-Chloro-benzylamino)-pyrido[4,3-d]pyrimidin-5-ylamino]-benzoic acid methyl ester] | > 4.52
3 | CCOC(=O)CCNC(=O)C1CCN(c2nccc3nc(NCc4ccccc4Cl)ncc23)CC1 [Compound 101, 3-({1-[2-(2-Chloro-benzylamino)-pyrido[4,3-d]pyrimidin-5-yl]-piperidine-4-carbonyl}-amino)-propionic acid ethyl ester] | > 4.52
4 | CN1CCN(C(=O)C2CCCN(c3nccc4nc(NCc5ccccc5Cl)ncc34)C2)CC1 (stereo not shown) [Compound 104, {1-[2-(2-Chloro-benzylamino)-pyrido[4,3-d]pyrimidin-5-yl]-piperidin-3-yl}-(4-methyl-piperazin-1-yl)-methanone] | > 4.52
5 | Cc1ccc(CNc2ncc3c(N4CCCC(C(=O)Nc5cccnc5)C4)nccc3n2)cc1 (stereo not shown) [Compound 93, 1-[2-(4-Methyl-benzylamino)-pyrido[4,3-d]pyrimidin-5-yl]-piperidine-3-carboxylic acid pyridin-3-ylamide] | > 4.52
6 | O=C(Cc1cccnc1)N1CCN(c2nccc3nc(NCc4ccccc4Cl)ncc23)CC1 [Compound 121, 1-{4-[2-(2-Chloro-benzylamino)-pyrido[4,3-d]pyrimidin-5-yl]-piperazin-1-yl}-2-pyridin-3-yl-ethanone] | > 5.30
7 | COc1ccc(Nc2nccc3nc(NCc4ccccc4)ncc23)cc1OC [Compound 6, N2-Benzyl-N5-(3,4-dimethoxy-phenyl)-pyrido[4,3-d]pyrimidine-2,5-diamine] | > 4.52
8 | Clc1ccccc1CNc1ncc2c(NCc3cccnc3)nccc2n1 [Compound 11, N2-(2-Chloro-benzyl)-N5-pyridin-3-ylmethyl-pyrido[4,3-d]pyrimidine-2,5-diamine] | > 4.52
9 | Fc1ccc(Nc2nccc3nc(NCc4ccc(Cl)cc4)ncc23)c(F)c1 [Compound 45, N2-(4-Chloro-benzyl)-N5-(2,4-difluoro-phenyl)-pyrido[4,3-d]pyrimidine-2,5-diamine] | > 4.52
10 | O=C(Nc1cccnc1)C1CCCN(c2nccc3nc(NCc4ccccc4Cl)ncc23)C1 (stereo not shown) [Compound 82, 1-[2-(2-Chloro-benzylamino)-pyrido[4,3-d]pyrimidin-5-yl]-piperidine-3-carboxylic acid pyridin-3-ylamide] | > 5.30
11 | Clc1ccccc1CNc1ncc2c(N3CCN(c4nccs4)CC3)nccc2n1 [Compound 109, (2-Chloro-benzyl)-[5-(4-thiazol-2-yl-piperazin-1-yl)-pyrido[4,3-d]pyrimidin-2-yl]amine] | > 5.00
12 | CC(C)NC(=O)C1CCN(c2nccc3nc(NCc4ccccc4)ncc23)CC1 [Compound 61, 1-(2-Benzylamino-pyrido[4,3-d]pyrimidin-5-yl)-piperidine-4-carboxylic acid isopropylamide] | > 4.52
13 | COCCOCC(=O)N1CCN(c2nccc3nc(NCc4ccccc4Cl)ncc23)CC1 [Compound 136, 1-{4-[2-(2-Chloro-benzylamino)-pyrido[4,3-d]pyrimidin-5-yl]-piperazin-1-yl}-2-(2-methoxy-ethoxy)-ethanone] | > 4.52
14 | COCCCNC(=O)C1CCCN(c2nccc3nc(NCc4ccccc4Cl)ncc23)C1 (stereo not shown) [Compound 90, 1-[2-(2-Chloro-benzylamino)-pyrido[4,3-d]pyrimidin-5-yl]-piperidine-3-carboxylic acid (3-methoxy-propyl)-amide] | > 4.52
15 | COCCCNC(=O)C1CCN(c2nccc3nc(NCc4ccccc4Cl)ncc23)CC1 [Compound 73, 1-[2-(2-Chloro-benzylamino)-pyrido[4,3-d]pyrimidin-5-yl]-piperidine-4-carboxylic acid (3-methoxy-propyl)-amide] | > 5.30
16 | CCN1CCN(C(=O)C2CCCN(c3nccc4nc(NCc5ccccc5Cl)ncc34)C2)CC1 (stereo not shown) [Compound 89, {1-[2-(2-Chloro-benzylamino)-pyrido[4,3-d]pyrimidin-5-yl]-piperidin-3-yl}-(4-ethyl-piperazin-1-yl)-methanone] | > 5.30
17 | COc1ccc(Nc2nccc3nc(NCc4ccccc4OC)ncc23)c(OC)c1 [Compound 40, N5-(2,4-Dimethoxy-phenyl)-N2-(2-methoxy-benzyl)-pyrido[4,3-d]pyrimidine-2,5-diamine] | > 4.52
18 | COc1ccc(CNc2ncc3c(Nc4ccc(OC)c(OC)c4)nccc3n2)cc1 [Compound 54, N5-(3,4-Dimethoxy-phenyl)-N2-(4-methoxy-benzyl)-pyrido[4,3-d]pyrimidine-2,5-diamine] | > 4.52
19 | COc1ccc(CNc2ncc3c(Nc4ccc(F)cc4F)nccc3n2)cc1 [Compound 52, N5-(2,4-Difluoro-phenyl)-N2-(4-methoxy-benzyl)-pyrido[4,3-d]pyrimidine-2,5-diamine] | > 4.52
20 | CCN(CC)C(=O)C1CCN(c2nccc3nc(NCc4ccccc4OC)ncc23)CC1 [Compound 103, 1-[2-(2-Methoxy-benzylamino)-pyrido[4,3-d]pyrimidin-5-yl]-piperidine-4-carboxylic acid diethylamide] | > 5.00

Second part, the molecule after the results:

Row | pIC50 | SMILES
21 | > 4.52 | O=C(NCc1ccc(F)cc1Cl)C1CCN(c2nccc3nc(NCc4ccccc4Cl)ncc23)CC1 [Compound 144, 1-[2-(2-Chloro-benzylamino)-pyrido[4,3-d]pyrimidin-5-yl]-piperidine-4-carboxylic acid 2-chloro-4-fluoro-benzylamide]
22 | > 4.52 | O=C(NCCO)C1CCN(c2nccc3nc(NCc4ccccc4Cl)ncc23)CC1 [Compound 105, 1-[2-(2-Chloro-benzylamino)-pyrido[4,3-d]pyrimidin-5-yl]-piperidine-4-carboxylic acid (2-hydroxy-ethyl)-amide]
23 | > 5.30 | NC(=O)C1CCN(c2nccc3nc(NCc4ccccc4Cl)ncc23)CC1 [Compound 107, 1-[2-(2-Chloro-benzylamino)-pyrido[4,3-d]pyrimidin-5-yl]-piperidine-4-carboxylic acid amide]
24 | > 4.52 | COc1ccc(Nc2nccc3nc(NCc4ccc(Cl)cc4)ncc23)cc1 [Compound 44, N2-(4-Chloro-benzyl)-N5-(4-methoxy-phenyl)-pyrido[4,3-d]pyrimidine-2,5-diamine]
25 | > 4.52 | COc1ccc(CNc2ncc3c(Nc4ccc(C#N)cc4)nccc3n2)cc1 [Compound 57, 4-[2-(4-Methoxy-benzylamino)-pyrido[4,3-d]pyrimidin-5-ylamino]-benzonitrile]
26 | > 5.30 | O=C(NCc1cccnc1)C1CCCN(c2nccc3nc(NCc4ccccc4Cl)ncc23)C1 (stereo not shown) [Compound 81, 1-[2-(2-Chloro-benzylamino)-pyrido[4,3-d]pyrimidin-5-yl]-piperidine-3-carboxylic acid (pyridin-3-ylmethyl)-amide]
27 | > 4.52 | Clc1ccc(CNc2ncc3c(Nc4ccc5c(c4)OCO5)nccc3n2)cc1 [Compound 46, N5-Benzo[1,3]dioxol-5-yl-N2-(4-chloro-benzyl)-pyrido[4,3-d]pyrimidine-2,5-diamine]
28 | > 4.52 | CC(C)CNc1nccc2nc(NCc3ccc(F)cc3)ncc12 [Compound 30, N2-(4-Fluoro-benzyl)-N5-isobutyl-pyrido[4,3-d]pyrimidine-2,5-diamine]
29 | > 4.52 | Clc1ccccc1CNc1ncc2c(NCCc3ccccn3)nccc2n1 [Compound 146, N2-(2-Chloro-benzyl)-N5-(2-pyridin-2-yl-ethyl)-pyrido[4,3-d]pyrimidine-2,5-diamine]
30 | > 4.52 | COc1ccccc1CNc1ncc2c(Nc3ccc(F)cc3)nccc2n1 [Compound 33, N5-(4-Fluoro-phenyl)-N2-(2-methoxy-benzyl)-pyrido[4,3-d]pyrimidine-2,5-diamine]
31 | > 4.52 | COc1ccc(Nc2nccc3nc(NCc4ccc(F)cc4)ncc23)cc1 [Compound 23, N2-(4-Fluoro-benzyl)-N5-(4-methoxy-phenyl)-pyrido[4,3-d]pyrimidine-2,5-diamine]
